{"source": "patent US12268727B2", "about": "“Bioactive polypeptides for improvements in plant protection, growth and productivity” (priority 2017, dated 2025)", "key": {"[1]": {"test_system": "reactive oxygen species (ROS) production in Arabidopsis leaf tissue", "assay": "ROS activity assay in Arabidopsis leaf tissue", "assay_type": "cell-based, Arabidopsis thaliana", "settings": "100 nM each polypeptide, negative control (water) 82896", "description": "Elf18 and Elf26 polypeptides derived from the consensus Bacillus cereus Elongation Factor-TU (EF-Tu) protein were tested for ability to produce a ROS response in corn (hybrid 5828 YX), soy (variety Morsoy), and Arabidopsis thaliana. Polypeptides were synthesized by Genscript USA (Piscataway, N.J.) using standard solid-phase synthesis methods and provided as a lyophilized powder with greater than or equal to 70% purity. Dry powder was re-suspended to a concentration of 10 mM in ultrapure water, and then serially diluted in ultrapure water to the concentrations tested in the ROS assay in Table 98.\nFor the ROS assay, Arabidopsis leaves were excised from 4-week-old plants, and using a cork borer 4 mm disks were removed from the leaves. Each disc was cut in half using the edge of a razor blade, and then each disc half was floated on 150 μL of water abaxial side touching the water in a 96-well plate to rest overnight. The next day, the water was removed from each well just prior to polypeptide treatment. RLU values and relative ROS activity was reported as the average of 4 measurements."}, "citrus trees": {"test_system": "citrus trees", "assay_type": "in vivo, Citrus sinensis; Citrus×paradisi", "settings": "Valencia orange and Ruby Red grapefruit, 1× and 10× injection April 2017, measured June 2018"}, "corn": {"test_system": "corn", "assay": "Seed treatment of corn, field yield trials", "assay_type": "in vivo", "settings": "for yield increase vs non-treated seed: 2 hybrids; for Average Yield Bu/Ac / Average Change in Bu/Ac compared to Untreated Control: seed treatment on base ST, BECK's 5828YX; for Average Yield Bu/Ac: 1 location, four replicated trials; for Average Total Yield Bu/Ac Hybrid 1 / Average Total Yield Bu/Ac Hybrid 1 and 2 / Average Total Yield Bu/Ac Hybrid 2: seed treatment"}, "[2]": {"test_system": "reactive oxygen species (ROS) production in soybean leaf tissue", "assay": "ROS activity assay in soybean leaf tissue (luminol/horseradish peroxidase, RLU)", "assay_type": "cell-based", "settings": "for Fold increase over negative control: vs mock (water)"}, "[3]": {"test_system": "Candidatus Liberibacter asiaticus", "settings": "in vivo"}, "soybean [4]": {"test_system": "soybean", "assay": "Soybean pod number after foliar application", "assay_type": "in vivo", "settings": "300 nM at R1 and 17 days later, counted after 31 days", "description": "Plants were then placed under a long day conditions consisting of 16/8 light/day cycle and temperature 21-26° C. to promote early flowering and speed up progression to the reproductive (R) growth stage. When the soybean plants had reached the R1 stage of development a foliar application containing the Gm.RHPP (SEQ ID NO: 600) polypeptide at a final concentration of 300 nM and a non-ionic surfactant of 0.10% (NIS90:10; Precision Laboratories, LLC) was applied to soybean. Soybean plants were provided with the Gm.RHPP formulation and a non-ionic surfactant only control. Both the Gm.RHPP and the non-ionic surfactant control treatment were applied to 18 plants per treatment. Six equidistant sprays were provided approximately 15 cm above per each plant for complete coverage of foliage. After treatment application, the R1 soybean plants were returned to the control environmental growth room. […] Soybean pods of more than 1 mm in length were counted on the plants after 31 days from the first foliar spray treatment applications. […] A p value (p<0.05 for significance) was calculated from a paired T-test comparison between pod number from plants that received the Gm.RHPP and the non-ionic surfactant control treatment applications."}, "soybean [5]": {"test_system": "soybean", "assay": "Foliar application to soybean in growth room, plant height (non-stress, heat and water deficit stress)", "assay_type": "in vivo", "settings": "300 nM + 0.1% ALLIGARE SURFACE", "description": "Ec.Flg22 (SEQ ID NO: 527) was applied to soybean (Beck's 297NR).\nPlant height (cm) was measured just prior to the foliar application delivered at 3 weeks and then again 2 weeks later when the plants were 5-weeks-old. Two replicate trials were conducted using 18 plants per trial.\nSoybean plants were grown as described in Example 6. The At.PSKα polypeptide (SEQ ID NO: 598) was applied as a foliar spray to the plants at the V1-V4 stage. Soybean plants treated with foliar applications of At.PSKα and control plants treated with water and surfactant alone were then grown in conditions described in Examples 7-9 that produced a non-stress and stress (heat and water deficit) environments. Table 37 describes the percentage change or increase in height reported for soybean plants treated with At.PSKα as a foliar spray at the V1-V4 growth stage.\nRHPP bioactive priming polypeptide (SEQ ID NO: 600) was also applied as foliar treatment to R1 stage hybrid soybean (Beck's 297R4) with 0.1% (v/v) non-ionic surfactant ([…] SURFACE) using a spray bottle delivering approximately 1.2 ml/plant. This experiment was performed to look at the effects of RHPP on plant growth and was conducted using a total of 18 plants per treatment group. […] R1 stage soybean plants were treated with nothing (non-treated control), […] SURFACE surfactant applied at a concentration of 0.1% (v/v) or the RHPP polypeptide (300 nM) applied in combination with […] SURFACE surfactant (0.1% v/v). Height for each plant was recorded at the time of spray and again at 16 days post foliar application and average growth parameters were compared between foliar treatments (Table 39)."}, "[6]": {"settings": "polypeptide 0.25 μM (cellobiose 1 mM where combined)"}, "[7]": {"settings": "polypeptide 1.0 μM (cellobiose 1 mM where combined)"}, "[8]": {"settings": "0.25 μM in seed coating slurry (0.035 fl oz of 40 μM peptide solution/unit)"}, "[9]": {"settings": "1.0 μM in seed coating slurry (0.14 fl oz of 40 μM peptide solution/unit)"}, "[10]": {"settings": "soybean leaf tissue, Bt.4Q7Flg22 52.2 nM without surfactant"}, "[11]": {"settings": "soybean leaves, Bt.4Q7Flg22 100 nM, No PROXEL Preservative Added"}}, "note": "Several values for one entry are separate records, joined by “and”; a condition that tells them apart may be missing. Equal values may be shown once. Entries after “also recorded” stand apart in the source; their conditions may differ."}
{"substance": "Bt.4Q7Flg22: Flg22 polypeptide (22 amino acids) from flagellin of Bacillus thuringiensis strain 4Q7 (DRLSSGKRINSASDDAAGLAIA; listed as Bacillus thuringiensis)", "values": [{"measurement": "Average RLU value", "setting": "[1]", "result": 258073, "unit": "RLU"}, {"measurement": "fruit per limb and fruit size vs untreated control", "setting": "citrus trees", "result": "increased fruit per limb and increased fruit size"}, {"measurement": "yield gain vs base seed treatment only", "setting": "corn; 1 uM in slurry, 3 hybrids, 8 locations", "result": 4.73, "unit": "Bu/Ac"}, {"measurement": "yield increase vs non-treated seed", "setting": "corn; high rate, 1.0 μM slurry (0.14 Fl. oz per unit), 12 locations", "result": 5.3, "unit": "Bu/Ac"}, {"measurement": "yield increase vs non-treated seed", "setting": "corn; low rate, 0.25 μM slurry (0.035 Fl. oz per unit), 12 locations", "result": 2.1, "unit": "Bu/Ac"}, {"measurement": "win rate", "setting": "corn; second study, 12 locations", "result": 50, "unit": "%"}, {"measurement": "yield advantage", "setting": "corn; second study, 12 locations", "result": 2.8, "unit": "Bu/Ac"}, {"measurement": "Average Yield Bu/Ac", "setting": "corn; [6]", "result": 47.06, "unit": "Bu/Ac"}, {"measurement": "Average Yield Bu/Ac", "setting": "corn; [7]", "result": 29.60, "unit": "Bu/Ac"}, {"measurement": "Average Change in Bu/Ac compared to Untreated Control", "setting": "corn; [6]", "result": "+19.07 Bu/Ac"}, {"measurement": "Average Change in Bu/Ac compared to Untreated Control", "setting": "corn; [7]", "result": "+1.60 Bu/Ac"}, {"measurement": "Average Total Yield Bu/Ac Hybrid 1", "setting": "corn; [8]", "result": 218.36, "unit": "Bu/Ac"}, {"measurement": "Average Total Yield Bu/Ac Hybrid 1 and 2", "setting": "corn; [8]", "result": 200.62, "unit": "Bu/Ac"}, {"measurement": "Average Total Yield Bu/Ac Hybrid 2", "setting": "corn; [8]", "result": 182.88, "unit": "Bu/Ac"}, {"measurement": "Average Total Yield Bu/Ac Hybrid 1", "setting": "corn; [9]", "result": 213.44, "unit": "Bu/Ac"}, {"measurement": "Average Total Yield Bu/Ac Hybrid 1 and 2", "setting": "corn; [9]", "result": 202.62, "unit": "Bu/Ac"}, {"measurement": "Average Total Yield Bu/Ac Hybrid 2", "setting": "corn; [9]", "result": 187.48, "unit": "Bu/Ac"}, {"measurement": "fold-increase in ROS production over mock-treated control", "setting": "[2]; 52.2 nM Bt.4Q7Flg22, NIS90:10 0.25% or 0.5% v/v, Silwet-L77 0.025% or 0.1% v/v", "result": 6.8, "unit": "×"}, {"measurement": "fold increase in RLU over mock treatment", "setting": "[2]; 100 nM Bt.4Q7Flg22, Proxel compatibility test", "result": 17.0, "unit": "×"}, {"measurement": "Avg. Activity (%) Soybean (297 R4) 100 nM polypeptide", "setting": "[2]; Table 33, RLU relative to native Bt.4Q7Flg22 = 100", "result": 100, "unit": "%"}, {"measurement": "Avg. Activity (%) Soybean (297 R4) 100 nM polypeptide", "setting": "[2]; Table 35, single polypeptides and combinations, Bt.4Q7Flg22 = 100", "result": 100, "unit": "%"}, {"measurement": "relative ROS activity", "setting": "[2]; soy leaf tissue, 10 nM", "result": 0.04, "unit": "×"}, {"measurement": "Polypeptide Concentration (nM) for 5 × 10^4 total RLU production", "setting": "[2]; soybean leaf discs, from best-fit regression, Table 72 data set", "result": 31.4, "unit": "nM"}, {"measurement": "Average RLU values", "setting": "[2]; [10]", "result": 350503, "unit": "RLU"}, {"measurement": "Fold increase over negative control", "setting": "[2]; [10]", "result": "(6.8X)"}, {"measurement": "Average RLU values", "setting": "[2]; [11]", "result": 81887, "unit": "RLU"}, {"measurement": "Fold increase over negative control", "setting": "[2]; [11]", "result": "(17.0X)"}, {"measurement": "Ct values vs control trees", "setting": "[3]", "result": "slightly higher Ct counts; also recorded: significantly higher Ct values"}, {"measurement": "Percentage Reduction in CLas titer Normalized to the Control, Trial 1", "setting": "[3]", "result": "37% and 33%"}, {"measurement": "reduction in CLas titer levels", "setting": "[3]", "result": "37% and 43%"}]}
{"substance": "GGIRAAPTGNER (Glycine max) [RHPP, Root Hair Promoting Peptide from Glycine max]", "values": [{"measurement": "pod count vs non-ionic surfactant control", "setting": "soybean [4]", "result": "approximately doubled pod count"}, {"measurement": "plant height and change in plant height vs surfactant alone and non-treated", "setting": "soybean [5]; R1, 16 days post application", "result": "increased plant growth (plant height)"}, {"measurement": "Height (cm)", "setting": "soybean [5]; soybean Beck's 297R4, R1 stage, 16 days post foliar application, n = 18", "result": 19.9, "unit": "cm"}, {"measurement": "Change in height (cm)", "setting": "soybean [5]; soybean Beck's 297R4, R1 stage, spray to 16 days post application, n = 18", "result": 4.6, "unit": "cm"}]}
